System: HBV viral load production from HepAD38 cells
Assay: Viral production from HepAD38 cells: viral load in supernatant by qPCR of the HBV core sequence
Type: cell-based
Settings: 5 days incubation, qPCR of supernatant HBV DNA vs DMSO control, read-out: viral load lowering EC50 (Activity)
Description: Assay Measuring Activity of Test Compounds on Viral Production from HepAD38 Cells
HepAD38 cells grown in a T-150 flask (Corning, cat #: 430825) with Growth Medium (DMEM/F12 […] (Hyclone, cat #: SH30023.02), 1× Pen/Strep (Invitrogen, cat #: 15140-122), 10% FBS (Tissue Culture Biologics, cat #: 101), […] G418 (Alfa Aesar, cat #: J62671), 1 μg/mL Tetracycline (Teknova, cat #: T3320)) were detached with 0.25% trypsin-EDTA (Invitrogen, cat #: 25200-056). Tetracycline-free treatment medium (15 mL DMEM/F12 (1:1) 1× Pen/step, with 2% FBS, Tet-system approved (Clontech, cat #: 631106) were then added to mix, transferred into a 50 ml conical tube (Falcon, cat #: 21008-918,) and spun at 1300 rpm for 5 min. Pelleted cells were then re-suspended/washed with 50 mL of 1×DPBS (Invitrogen, cat #: 14190-136) 2 times and 50 mL treatment medium twice. HepAD38 cells were then re-suspended with 10 mL of treatment medium, syringed and counted. Wells of 96-well clear bottom TC plate (Corning, cat #: 3904,) were seeded at 50,000 cells/well in 180 μL of treatment medium, and 20 μL of either 10% DMSO (Sigma, cat #: D4540) as controls or a 10× solution of test compounds in 10% DMSO in treatment media was added for a final compound concentration starting at 10 μM, and plates were incubated in 5% CO2 incubator at 37° C. for 5 days.
Subsequently viral load production was assayed by quantitative PCR (qPCR) of the HBV core sequence. PCR reaction mixture containing forward primers HBV-f 5′-CTGTGCCTTGGGTGGCTIT-3′ (IDT DNA), Reverse primers HBV-r 5′-[…]-3′ (IDT DNA), Fluorescent TaqMan™ Probes HBV-probe 5′-FAM/AGCTCCAAA/ZEN/[…]/3IABkFQ-3′ (IDT DNA), 10 μL/well of PerfeCTa® qPCR ToughMix® (Quanta Biosciences, Cat #: 95114-05K), and 6 μL/well of DEPC water (Alfa Aesar, cat #: J62087) was prepared. Four μL of supernatant was added to 16 μL of the reaction mixture in a qPCR plate (Applied Biosytems, Cat #: 4309849), sealed with a film (Applied Biosystems, Cat #: 4311971), centrifuged for a few seconds, and subsequently run on an Applied Biosystems VIIA7. The PCR mixture was incubated at 45° C. for 5 min, then 95° C. for 10 min, followed by 40 cycles of 10 seconds at 95° C. and 20 seconds at 60° C. Viral load was quantified against known HBV DNA standards by using ViiA™ 7 Software. Viral load in the supernatant from wells with treated cells were compared against viral load in supernatant from DMSO control wells (≥3 per plate). Cell viability assay was performed with CellTiter-Glo Luminescent Cell Viability Assay (Promega, cat #: G7573) with modification. Mixed appropriate amount of CellTiter-Glo (CTG) 1×DPBS in a 1:1 ratio, added 100 uL of the mixture to each well followed completely removal of all supernatant in each well without touching cell surface. Incubated the plate at room temperature for 10 min on an orbital shaker, and then read the plate with a plate reader (TECAN M1000 or Envision). EC50 or CC50 values were calculated through curve-fitting of the four-parameter nonlinear-logistic-regression model (GraphPad Prism or Dotmatics). CC50 values were all >10 μM.

`CN(C)CC(C)(C)COc1ccc(-c2ncc(CNC(=O)C3CC(C(=O)Nc4ccc(F)c(Cl)c4)N(C)S(=O)(=O)N3)s2)cc1` (single isomer, unassigned) [Compound 943-ISOMER-B, N3-(3-chloro-4-fluoro-phenyl)-N5-[[2-[4-[3-(dimethylamino)-2,2-dimethyl-propoxy]phenyl]thiazol-5-yl]methyl]-2methyl-1,1-dioxo-1,2,6-thiadiazinane-3,5-dicarboxamide] and `CN1C(C(=O)Nc2ccc(F)c(Cl)c2)CC(C(=O)NCc2cc(-c3ccc(F)cc3)n(C)n2)NS1(=O)=O` (single isomer, unassigned) [1151-ISOMER-B, N3-(3-chloro-4-fluoro-phenyl)-N5-[[5-(4-fluorophenyl)-1-methyl-pyrazol-3-yl]methyl]-2-methyl-1,1-dioxo-1,2,6-thiadiazinane-3,5-dicarboxamide] fall in the same range of EC50: 0.1 to 10 µM for the first, 0.1 to 10 µM for the second.

`CN1C(C(=O)Nc2ccc(F)c(Cl)c2)CC(C(=O)NC2CCN(C(=O)C3CC3)CC2)NS1(=O)=O` (single isomer, unassigned) [Compound 854-ISOMER-B, N3-(3-chloro-4-fluoro-phenyl)-N5-[1-(cyclopropanecarbonyl)-4-piperidyl]-2-methyl-1,1-dioxo-1,2,6-thiadiazinane-3,5-dicarboxamide] and `Cc1nc(-c2ccccc2)sc1CNC(=O)C1CC(C(=O)Nc2ccc(F)c(C#N)c2)N(C)S(=O)(=O)N1` (single isomer, unassigned) [1136-ISOMER-B, N3-(3-cyano-4-fluoro-phenyl)-2-methyl-N5-[(4-methyl-2-phenyl-thiazol-5-yl)methyl]-1,1-dioxo-1,2,6-thiadiazinane-3,5-dicarboxamide] fall in the same range of EC50: 0.1 to 10 µM for the first, 0.1 to 10 µM for the second.

Same assay, conditions: Hepatitis B virus, HePAD38, 120 h, 5 days incubation, qPCR of supernatant HBV DNA vs DMSO control, read-out: viral load lowering EC50 (Activity)

`CN1C(C(=O)Nc2ccc(F)c(Cl)c2)CC(C(=O)NCc2cnc(-c3ccc(OCCN4CCCCC4)cc3)s2)NS1(=O)=O` (single isomer, unassigned) [Compound 922-ISOMER-A, N3-(3-chloro-4-fluoro-phenyl)-2-methyl-1,1-dioxo-N5-[[2-[4-[2-(1-piperidyl)ethoxy]phenyl]thiazol-5-yl]methyl]-1,2,6-thiadiazinane-3,5-dicarboxamide] and `CN1C(C(=O)Nc2ccc(F)c(Cl)c2)CC(C(=O)NCc2cnc(-c3ccc(F)cc3)s2)NS1(=O)=O` (single isomer, unassigned) [Compound 916-ISOMER-A, N3-(3-chloro-4-fluoro-phenyl)-N5-[[2-(4-fluorophenyl)thiazol-5-yl]methyl]-2-methyl-1,1-dioxo-1,2,6-thiadiazinane-3,5-dicarboxamide] fall in the same range of EC50: 0.1 to 10 µM for the first, 0.1 to 10 µM for the second.

Compared with `CN1C(C(=O)Nc2ccc(F)c(Cl)c2)CC(C(=O)Nc2cccnc2)NS1(=O)=O` (centres unmarked) [Compound 708], `CN1C(C(=O)Nc2ccc(F)c(Cl)c2)CC(C(=O)NCc2cccc(Cl)c2)NS1(=O)=O` (centres unmarked) [Compound 730] is lower in EC50: 0.1 to 10 µM for the first, under 0.05 µM for the second.

First: CN1C(C(=O)Nc2ccc(F)c(Cl)c2)CC(C(=O)NCc2ncc(-c3ccc(F)cc3)s2)NS1(=O)=O (centres unmarked) [Compound 1153]
Second: CN1C(C(=O)Nc2ccc(F)c(Cl)c2)CC(C(=O)NCc2cnc(-c3ccccc3Cl)s2)NS1(=O)=O (single isomer, unassigned) [Compound 912-ISOMER-A, N3-(3-chloro-4-fluoro-phenyl)-N5-[[2-(2-chlorophenyl)thiazol-5-yl]methyl]-2-methyl-1,1-dioxo-1,2,6-thiadiazinane-3,5-dicarboxamide]
The EC50 of the first is lower: under 0.05 µM for the first, 0.1 to 10 µM for the second.

`Cc1nc(-c2ccccc2Cl)sc1[C@@H](NC(=O)C1CC(C(=O)Nc2ccc(F)c(Cl)c2)N(C)S(=O)(=O)N1)c1ccccc1` (single isomer, unassigned) [1100-ISOMER-B] and `CN1C(C(=O)Nc2ccc(F)c(Cl)c2)CC(C(=O)N[C@H]2CCCc3ccccc32)NS1(=O)=O` (some centres unmarked) [Compound 731] fall in the same range of EC50: 0.1 to 10 µM for the first, 0.1 to 10 µM for the second.

First: CN1C(C(=O)Nc2ccc(F)c(Cl)c2)CC(C(=O)N[C@H]2CCN(c3ccnc(Cl)c3)C2)NS1(=O)=O (some centres unmarked) [Compound 1055-S]
Second: CN1C(C(=O)Nc2ccc(F)c(Cl)c2)CC(C(=O)NCc2ccc(C(F)(F)F)cc2)NS1(=O)=O (centres unmarked) [Compound 481]
The EC50 of the first is lower: under 0.05 µM for the first, 0.05 to 0.1 µM for the second.
